Measured values published in PubChem BioAssay (NCI).
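Compound exposure: 48 hours, 5 concentrations, 96-well plates. Here, GI50 denotes the concentration required for 50% inhibition of growth. Definition used: TGI = concentration required for complete inhibition of growth.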

How the values were obtained:
Test in all cases: NCI anticancer screen, dose series, 48 h; in the data active = GI50 below about 0.43 µM; inactive = the rest
[1] = system: SNB-19 CNS
[2] = system: HL-60(TB) leukemia
[3] = system: CAKI-1 renal
[4] = system: LOX IMVI melanoma
[5] = system: SF-268 CNS
[6] = system: T-47D breast
[7] = system: SF-295 CNS
[8] = system: EKVX NSCLC
[9] = system: TK-10 renal
[10] = system: ACHN renal
[11] = system: MCF7 breast
[12] = system: NCI-H226 lung
[13] = system: HCT-116 colon
[14] = system: IGROV1 ovarian
[15] = system: NCI-H23 lung
[16] = system: SK-OV-3 ovarian
[17] = system: PC-3 prostate
[18] = system: SF-539 CNS
[19] = system: RPMI-8226 leukemia
[20] = system: K-562 leukemia
[21] = system: U251 CNS
[22] = system: SK-MEL-28 melanoma
[23] = system: SN12C renal
[24] = system: KM12 colon
[25] = system: 786-0 renal
[26] = system: COLO 205 colon
[27] = system: MDA-MB-231 breast
[28] = system: HCC-2998 colon
[29] = system: CCRF-CEM leukemia
[30] = system: HOP-62 NSCLC
[31] = system: A498 renal
[32] = system: NCI-H460 lung
[33] = system: BT-549 breast
[34] = system: MALME-3M melanoma
[35] = system: SK-MEL-2 melanoma
[36] = system: OVCAR-8 ovarian
[37] = system: DU-145 prostate
[38] = system: SK-MEL-5 melanoma
[39] = system: RXF 393 renal
[40] = system: MOLT-4 leukemia
[41] = system: UACC-62 melanoma
[42] = system: M14 melanoma
[43] = system: UACC-257 melanoma
[44] = system: A549 NSCLC
[45] = system: HOP-92 NSCLC
[46] = system: HT29 colon
[47] = system: SNB-75 CNS
[48] = system: SW-620 colon
[49] = system: HS 578T breast
[50] = system: NCI-H522 lung
[51] = system: OVCAR-3 ovarian
[52] = system: NCI/ADR-RES ovarian
[53] = system: HCT-15 colon
[54] = system: OVCAR-4 ovarian
[55] = system: MDA-MB-435
[56] = system: UO-31 renal
[57] = system: OVCAR-5 ovarian
[58] = system: SR leukemia

COc1cc2ncn(-c3cc(OCc4ccccc4C(F)(F)F)c(C(N)=O)s3)c2cc1OC
> 11.6 µM: TGI [18]
> 8.39 µM: TGI [41]
> 25 µM: TGI [2] | TGI [3] | TGI [4] | TGI [5] | TGI [6] | TGI [8] | TGI [10] | TGI [11] | TGI [12] | TGI [13] | TGI [14] | TGI [17] | TGI [20] | TGI [22] | TGI [23] | TGI [24] | TGI [27] | TGI [28] | TGI [29] | TGI [32] | TGI [34] | TGI [38] | TGI [40] | TGI [42] | TGI [43] | TGI [44] | TGI [46] | TGI [48] | TGI [52] | TGI [53] | TGI [54] | TGI [56] | TGI [57]
6.9 µM: TGI [7]
10.5 µM: TGI [45]
inactive: GI50 [1] 2400 nM | GI50 [3] 3.88 µM | GI50 [6] 4.42 µM | GI50 [8] 3.69 µM | GI50 [9] 3.29 µM | GI50 [10] 2790 nM | GI50 [12] 1010 nM | GI50 [14] 933 nM | GI50 [22] 1500 nM | GI50 [23] 2670 nM | GI50 [25] 1560 nM | GI50 [33] 1640 nM | GI50 [34] 14.5 µM | GI50 [43] > 5.96 µM | GI50 [45] 2200 nM | GI50 [47] 2700 nM | GI50 [49] 576 nM | GI50 [54] > 23.5 µM | GI50 [56] > 18.4 µM
> 19.5 µM: TGI [33]
active: GI50 [2] 36.1 nM | GI50 [4] 139 nM | GI50 [5] 225 nM | GI50 [7] 131 nM | GI50 [11] 28.2 nM | GI50 [13] 246 nM | GI50 [15] 160 nM | GI50 [16] 251 nM | GI50 [17] 214 nM | GI50 [18] 139 nM | GI50 [19] 278 nM | GI50 [20] 137 nM | GI50 [21] 206 nM | GI50 [24] 95.8 nM | GI50 [26] 117 nM | GI50 [27] 270 nM | GI50 [28] 276 nM | GI50 [29] 84.1 nM | GI50 [30] 197 nM | GI50 [31] 186 nM | GI50 [32] 101 nM | GI50 [35] 207 nM | GI50 [36] 168 nM | GI50 [37] 92.4 nM | GI50 [38] 106 nM | GI50 [39] 102 nM | GI50 [40] 130 nM | GI50 [41] 168 nM | GI50 [42] 141 nM | GI50 [44] 204 nM | GI50 [46] 88.9 nM | GI50 [48] 82.2 nM | GI50 [50] 168 nM | GI50 [51] 83.8 nM | GI50 [52] 150 nM | GI50 [53] 211 nM | GI50 [55] 55.2 nM | GI50 [57] 178 nM
0.794 µM: TGI [51]
3.67 µM: TGI [50]
> 25000 nM: TGI [19] | TGI [26]
> 8.59 µM: TGI [49]
9.09 µM: TGI [16]
0.407 µM: TGI [37]
12.8 µM: TGI [9]
282 nM: TGI [55]
> 19.3 µM: TGI [1] | TGI [21]
12.3 µM: TGI [35]
4.02 µM: TGI [39]
5.2 µM: TGI [31]
22.5 µM: TGI [25]
5.88 µM: TGI [30]
> 19.9 µM: TGI [36]
9.31 µM: TGI [47]
> 22.2 µM: TGI [15]

Cc1c(C#N)c2nnn(-c3cccc(Cl)c3)c(=O)n2c1-c1ccccc1
38.2 µM: TGI [13]
62 µM: TGI [23]
8.59 µM: TGI [50]
4.03 µM: TGI [20]
9.91 µM: TGI [17]
7.81 µM: TGI [30]
10.4 µM: TGI [18]
12.6 µM: TGI [12]
5.84 µM: TGI [39]
6.1 µM: TGI [27]
8.95 µM: TGI [35]
13 µM: TGI [31]
9.18 µM: TGI [46]
18.2 µM: TGI [28]
2350 nM: TGI [26]
14.9 µM: TGI [24]
4.98 µM: TGI [7]
5.59 µM: TGI [51]
53.9 µM: TGI [6]
> 100 µM: TGI [1] | TGI [2] | TGI [3] | TGI [4] | TGI [5] | TGI [8] | TGI [9] | TGI [10] | TGI [14] | TGI [15] | TGI [16] | TGI [22] | TGI [25] | TGI [29] | TGI [32] | TGI [33] | TGI [34] | TGI [36] | TGI [42] | TGI [43] | TGI [44] | TGI [45] | TGI [48] | TGI [49] | TGI [52] | TGI [53] | TGI [54] | TGI [56] | TGI [57]
7.76 µM: TGI [47]
19.2 µM: TGI [38]
11.1 µM: TGI [21]
2690 nM: TGI [58]
35.4 µM: TGI [11]
40.4 µM: TGI [37]
2610 nM: TGI [19]
36 µM: TGI [41]
